Experimental data: US9708314B2, “Heterocyclic amide compound” (NISSAN CHEMICAL INDUSTRIES, LTD., priority 2013, dated 2017)

Experiments:
Assay type in all cases: in vivo
[1] = test system: Monochoria vaginalis; assay: Test Example 1: herbicidal activity, application before weed generation in submerged conditions; conditions: Application herbicide amount 320 g/ha; Seventeenth Table
How it was run: (§1)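 Submerged pot test: alluvial soil, 4 cm water, seeds sown mixed, 2.5-leaf rice transplanted; emulsion in water applied to surface day of sowing, dose g/ha; greenhouse 25–30° C.; 3 wk; 0–5 rating.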

[2] = test system: Echinochloa oryzacola Vasing.; assay: as above; conditions: Application herbicide amount 320 g/ha; Seventeenth Table
How it was run: as §1

[3] = test system: Scirpus juncoides; assay: as above; conditions: Application herbicide amount 320 g/ha; Seventeenth Table
How it was run: as §1

[4] = test system: Alopecurus myosuroides; assay: Test Example 4: herbicidal effect by application to foliage (diluvial soil, plastic box); conditions: 320 g/ha; for herbicidal effect, J (Alopecurus myosuroides): application to foliage
How it was run: (§2)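 Read-out is a 0–5 visual grade of herbicidal ratio (5: ≥90%, almost withered; 0: ≤5%) taken three weeks after treatment. Compound was applied as a diluted emulsion to stem and leaf parts of 14-day greenhouse-grown plants (25° C. to 30° C.) at rates expressed as g/ha.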

[5] = test system: Stellaria media; assay: as above; conditions: 320 g/ha; for herbicidal effect, P (Stellaria media): application to foliage
How it was run: as §2

[6] = test system: Lolium multiflorum Lam.; assay: as above; conditions: 320 g/ha; for herbicidal effect, K (Lolium multiflorum Lam.): application to foliage
How it was run: as §2

[7] = test system: Setaria viridis; assay: as above; conditions: 320 g/ha; for herbicidal effect, G (Setaria viridis): application to foliage
How it was run: as §2

[8] = test system: Amaranthus retroflexus; assay: as above; conditions: 320 g/ha; for herbicidal effect, N (Amaranthus retroflexus): application to foliage
How it was run: as §2

[9] = test system: Digitaria ciliaris; assay: as above; conditions: 320 g/ha; for herbicidal effect, F (Digitaria ciliaris): application to foliage
How it was run: as §2

Row | SMILES | C: Monochoria vaginalis (herbicidal effect grade) [1] | A: Echinochloa oryzicola Vasing. (herbicidal effect grade) [2] | B: Scirpus juncoides (herbicidal effect grade) [3] | J (Alopecurus myosuroides) herbicidal effect grade ([4]; foliage application) | P (Stellaria media) herbicidal effect grade ([5]; foliage application) | K (Lolium multiflorum Lam.) herbicidal effect grade ([6]; foliage application) | G (Setaria viridis) herbicidal effect grade ([7]; foliage application) | N (Amaranthus retroflexus) herbicidal effect grade ([8]; foliage application) | F (Digitaria ciliaris) herbicidal effect grade ([9]; foliage application) | herbicidal effect, J (Alopecurus myosuroides) [4] | herbicidal effect, P (Stellaria media) [5] | herbicidal effect, K (Lolium multiflorum Lam.) [6] | herbicidal effect, G (Setaria viridis) [7] | herbicidal effect, N (Amaranthus retroflexus) [8] | herbicidal effect, F (Digitaria ciliaris) [9]
1 | COCCNc1nnc2c(C(=O)Nc3nnnn3C)ccc(C(F)(F)F)n12 [2-074] | 3 (Herbicidal ratio of 40% or more and less than 70%) | 4 (Herbicidal ratio of 70% or more and less than 90%) | 4 (Herbicidal ratio of 70% or more and less than 90%) | 3 (Herbicidal ratio of 40% or more and less than 70%) | 4 (Herbicidal ratio of 70% or more and less than 90%) | 3 (Herbicidal ratio of 40% or more and less than 70%) | 4 (Herbicidal ratio of 70% or more and less than 90%) | 5 (Herbicidal ratio of 90% or more (almost completely withered)) | 5 (Herbicidal ratio of 90% or more (almost completely withered)) | – | – | – | – | – | –
2 | Cn1nnnc1NC(=O)c1ccc(C(F)(F)F)n2c(N3CCOCC3)nnc12 [2-075] | 5 (Herbicidal ratio of 90% or more (almost completely withered)) | 5 (Herbicidal ratio of 90% or more (almost completely withered)) | 5 (Herbicidal ratio of 90% or more (almost completely withered)) | – | – | – | – | – | – | 4 (Herbicidal ratio of 70% or more and less than 90%) | 5 (Herbicidal ratio of 90% or more (almost completely withered)) | 4 (Herbicidal ratio of 70% or more and less than 90%) | 5 (Herbicidal ratio of 90% or more (almost completely withered)) | 5 (Herbicidal ratio of 90% or more (almost completely withered)) | 5 (Herbicidal ratio of 90% or more (almost completely withered))
3 | Cn1nnnc1NC(=O)c1ccc(C(F)(F)F)n2c(SCc3ccccc3)nnc12 [2-076] | 3 (Herbicidal ratio of 40% or more and less than 70%) | 5 (Herbicidal ratio of 90% or more (almost completely withered)) | 4 (Herbicidal ratio of 70% or more and less than 90%) | – | – | – | – | – | – | 1 (Herbicidal ratio of 5% or more and less than 20%) | 5 (Herbicidal ratio of 90% or more (almost completely withered)) | 1 (Herbicidal ratio of 5% or more and less than 20%) | 3 (Herbicidal ratio of 40% or more and less than 70%) | 5 (Herbicidal ratio of 90% or more (almost completely withered)) | 3 (Herbicidal ratio of 40% or more and less than 70%)
4 | COc1ccc(CSc2nnc3c(C(=O)Nc4nnnn4C)ccc(C(F)(F)F)n23)cc1 [2-077] | 3 (Herbicidal ratio of 40% or more and less than 70%) | 5 (Herbicidal ratio of 90% or more (almost completely withered)) | 3 (Herbicidal ratio of 40% or more and less than 70%) | – | – | – | – | – | – | 0 (Herbicidal ratio of 5% or less (almost no effect)) | 4 (Herbicidal ratio of 70% or more and less than 90%) | 0 (Herbicidal ratio of 5% or less (almost no effect)) | 2 (Herbicidal ratio of 20% or more and less than 40%) | 5 (Herbicidal ratio of 90% or more (almost completely withered)) | 4 (Herbicidal ratio of 70% or more and less than 90%)
